Data as given in PubChem BioAssay (NCI).
Several values for one entry are separate records, joined by “and”; a condition that tells them apart may be missing. Identical values can stand only once.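 A five-concentration, 48-hour dose response in 96-well plates underlies each endpoint, interpolated linearly between surrounding concentrations. GI50 = concentration required for 50% inhibition of growth. The concentration for full growth arrest is given as TGI.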

Tests used:
Test in all cases: growth of human tumour cells (NCI), 48 h
KM12 colon = system: KM12 colon
MDA-MB-231 breast = system: MDA-MB-231 breast
MCF7 breast = system: MCF7 breast
NCI-H23 lung = system: NCI-H23 lung
A498 renal = system: A498 renal
T-47D breast = system: T-47D breast
PC-3 prostate = system: PC-3 prostate
NCI/ADR-RES ovarian = system: NCI/ADR-RES ovarian
HL-60(TB) leukemia = system: HL-60(TB) leukemia
UACC-62 melanoma = system: UACC-62 melanoma

Structure (SMILES) | GI50 (KM12 colon) | TGI (KM12 colon) | GI50 (MDA-MB-231 breast) | TGI (MDA-MB-231 breast) | GI50 (MCF7 breast) | TGI (MCF7 breast) | GI50 (NCI-H23 lung) | TGI (NCI-H23 lung) | GI50 (A498 renal) | TGI (A498 renal) | GI50 (T-47D breast) | TGI (T-47D breast) | GI50 (PC-3 prostate) | TGI (PC-3 prostate) | GI50 (NCI/ADR-RES ovarian) | TGI (NCI/ADR-RES ovarian) | GI50 (HL-60(TB) leukemia) | TGI (HL-60(TB) leukemia) | GI50 (UACC-62 melanoma) | TGI (UACC-62 melanoma)
CCN(Cc1ccc(F)cc1)c1ccc(CO)c(C(F)(F)F)c1 | 15.2 µM | 29.3 µM | 14.3 µM | 27.3 µM | 5.77 µM | 19.2 µM | 11.1 µM | 24.2 µM | 0.122 µM | 0.287 µM | 1.84 µM | 10.4 µM | 12.1 µM | 25.7 µM | 13.7 µM | 28 µM | 15.8 µM | 41.9 µM | 1.41 µM | 7.33 µM
COCCOCCOCCOCCOC(=O)OC[n+]1ccc(NC(=NCCCCCCOc2ccc(Cl)cc2)NC#N)cc1 | < 0.0377 µM | 17.3 µM | 5.19 µM | 23.7 µM | 0.873 µM | 17.4 µM | 4.23 µM | 23.1 µM | 1.28 µM | 15.4 µM | 0.112 µM | 17.5 µM | < 0.01 µM | 14.2 µM | < 0.0395 µM | 20.2 µM | 3.25 µM | 10.7 µM | 9.97 µM | 22.2 µM
COc1ccc2c(c1)C(=O)c1c-2c(=O)n(CCCN(C)C)c2cc(OC)c(OC)cc12 | 5.73 µM | 19.8 µM | 14.4 µM | 28.5 µM | 0.141 µM | 15.3 µM | 6.48 µM | 24.5 µM | 15 µM | > 100 µM | > 100 µM | > 100 µM | 11.4 µM | 26.5 µM | 5.93 µM | 23.6 µM | 10.4 µM | 31.7 µM | > 100 µM | > 100 µM
C#CCNC(=O)NC(CCCCNC(=O)OCc1ccccc1)C(=O)OCc1ccccc1 (centres undefined) | – | > 100 µM | – | > 58.7 µM | – | > 100 µM | – | > 100 µM | – | 53.6 µM | – | > 32.4 µM | – | > 100 µM | – | > 100 µM | – | 46.7 µM | – | 33.6 µM
O=S(=O)(O)c1ccc2cc3nn(-c4ccc(/C=C/c5ccc(-n6nc7cc8ccc(S(=O)(=O)O)cc8cc7n6)cc5S(=O)(=O)O)c(S(=O)(=O)O)c4)nc3cc2c1 | 30.4 µM | > 100 µM | 37 µM | > 100 µM | > 100 µM | > 100 µM | > 100 µM | > 100 µM | > 100 µM | > 100 µM | > 100 µM | > 100 µM | 74.7 µM | > 100 µM | > 100 µM | > 100 µM | 31.9 µM | > 100 µM | 34.1 µM | > 100 µM
CCOC(=O)C(Cc1ccc(N(CCCl)CCCl)cc1)NC(=O)C(Cc1ccccc1)NC(C)=O (centres undefined) | – | > 0.565 µM | – | > 0.366 µM | – | 0.496 µM | – | > 0.304 µM | – | > 0.414 µM | – | > 0.928 µM | – | > 0.374 µM | – | > 0.618 µM | – | > 0.264 µM | – | > 0.277 µM
COc1cc2c(cc1NC(=O)C(Cl)Cl)-c1ccc(NC(=O)C(Cl)Cl)cc1C2 | 0.336 µM | 1.17 µM | 0.499 µM | 2 µM | 0.391 µM | 1.82 µM | 2.52 µM | 12.5 µM | 0.551 µM | 1.89 µM | 0.707 µM | 8.6 µM | 0.606 µM | 1.76 µM | 0.789 µM | 4.42 µM | 0.568 µM | 3.37 µM | 0.586 µM | 2.07 µM
O=c1[nH]c2ccccc2n1C1CCN(CCCC(c2ccc(F)cc2)c2ccc(F)cc2)CC1 | 1.76 µM and 6.97 µM | 3.4 µM and 22.1 µM | 1.33 µM and 7.38 µM | – | 1.59 µM and 5.3 µM | 3.1 µM and 11.8 µM | 1.51 µM and 9.1 µM | 3.18 µM and 24.3 µM | 1.12 µM and 8.77 µM | 2.36 µM and 22.7 µM | 1.06 µM and 4.22 µM | 2.67 µM and 17.7 µM | 1.41 µM and 7.81 µM | 3.2 µM and 21.3 µM | 1.46 µM and 3.2 µM | 2.96 µM and 13.2 µM | 1.82 µM | 4.4 µM and 11.9 µM | 1.38 µM and 9.92 µM | 2.75 µM and 23.5 µM
O=C1/C(=C/c2ccccc2[N+](=O)[O-])COc2ccc(O)cc21 | 1.85 µM | 4.31 µM | 1.77 µM | 3.69 µM | 0.697 µM | 8.75 µM | 1.59 µM | 4.41 µM | 1.65 µM | 7.24 µM | 2.36 µM | 17.6 µM | 2.01 µM | 10.8 µM | 1.99 µM | 8.09 µM | 1.76 µM | 5.68 µM | 1.52 µM | 3.08 µM
O=c1[nH]c(=S)[nH]c(-c2ccccc2)c1Cc1c(O)ccc2ccccc12 | – | > 100 µM | – | > 100 µM | – | > 100 µM | – | 90.6 µM | – | 44.7 µM | – | 58 µM | – | > 100 µM | – | > 100 µM | – | 50.5 µM | – | 52.4 µM
